Molecules are shown by their SMILES. Where two headings read alike, the source gives them in different places.

Assay [1] deals with IL-17 production in human blood. Put plainly: Effect on IL-17 production in human blood. As to conditions: 72 h; 10 μM test compound; human peripheral blood, IL-23 and Dynabeads stimulation, 3 days; read-out: percent inhibition at 10 μM (IL-17 production). The format is cell-based. As for the experimental part: Effect on IL-17 Production in Human Blood
The inhibitory effect of the test compound on IL-17 production in human blood was evaluated as follows. First, 150 μL of peripheral blood collected from healthy individuals using heparinized vacuum blood collection tubes was dispensed into each well of a 96-well plate (Corning), and 45 μL of RPMI 1640 medium (Gibco) containing 10% fetal bovine serum (FBS, Hyclone) and 30 μL of the test compound diluted with the medium were added to each well. The plate was then cultured for 30 min at 37° C. The cells were subsequently stimulated by adding 30 μL of 100 ng/mL human IL-23 (R&D) and 45 μL of Dynabeads Human (Invitrogen) to each well and culturing the plate for 3 days at 37° C. In wells without stimulation, 75 μL of RPMI 1640 medium containing 10% FBS was added instead of the IL-23 and Dynabeads solution. After culturing for 3 days, the culture supernatant was collected, and the amount of IL-17 in the supernatant was measured using an IL-17 ELISA kit (R&D).
The results (percent inhibition of IL-17 production with 10 μM of the test compound) measured by the above-mentioned method are shown in Table 8.

For assay [2], the target named is T1, RORγt (Homo sapiens, UniProt P51449).
T1 sequence (P51449 1-497 isoform P51449-2): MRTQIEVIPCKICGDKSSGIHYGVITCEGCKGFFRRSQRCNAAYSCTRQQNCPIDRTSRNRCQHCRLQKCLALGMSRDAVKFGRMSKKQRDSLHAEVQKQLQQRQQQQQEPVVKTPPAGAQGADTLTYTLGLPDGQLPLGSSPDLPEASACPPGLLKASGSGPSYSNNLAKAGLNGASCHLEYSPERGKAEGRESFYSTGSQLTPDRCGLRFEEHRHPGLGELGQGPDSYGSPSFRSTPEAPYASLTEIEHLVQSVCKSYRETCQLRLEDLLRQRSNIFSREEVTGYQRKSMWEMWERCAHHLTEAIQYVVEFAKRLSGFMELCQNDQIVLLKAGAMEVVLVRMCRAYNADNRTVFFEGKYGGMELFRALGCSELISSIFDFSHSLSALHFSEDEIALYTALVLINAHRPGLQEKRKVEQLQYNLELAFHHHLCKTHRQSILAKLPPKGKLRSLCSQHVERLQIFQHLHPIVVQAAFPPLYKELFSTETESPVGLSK
Put plainly: Cofactor recruitment test (Alpha Screen, biotinylated SRC-1 peptide). It counts as biochemical. Particulars: read-out: signal value inhibitory rate at test compound 1 μM. As for the experimental part: Cofactor Recruitment Test
Cofactor recruitment test was performed by Alpha Screen (Histidine Detection Kit, PerkinElmer) method. First, a test compound was diluted with an assay buffer (50 mM Tris-HCl (pH 7.5), 50 mM KCl, 1 mM DTT, 0.1% BSA) and added to a 384 well plate by 5 μL. […] The mixture was stood in a dark place for 1 hr, and the signal value was measured by Envision (PerkinElmer).

Assay [3] deals with T1, RORγt. Put plainly: Jurkat reporter test (human IL-17 ROR response element luciferase, RORγt vector). It counts as cell-based. As to conditions: test compound 3 μM, Jurkat cells, read-out: luminescence level inhibitory rate at test compound 3 μM. Put shortly: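 Jurkat cells were electroporated (1350 V, 10 ms, 3 pulses) with reporter constructs, then cultured overnight with compound in RPMI containing 10% lipid-reduced FCS, 10 mM HEPES pH 7.5 and 5 μM lovastatin. Luciferase was quantified by Bright-Glo luminescence after 10 min at room temperature.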

Assay [4] concerns IL-23-induced mouse psoriasis model. Put plainly: IL-23-induced mouse psoriasis model. As to conditions: 10 mg/kg oral twice daily, Balb/c mice, versus the negative control group; for percent inhibition of IL-17A expression: ear tissue. The format is in vivo. As for the experimental part:
Effect in an IL-23-Induced Mouse Psoriasis Model
Mouse IL-23 (500 ng/15 μL, R&D) or PBS (15 μL, negative control group) was administered intradermally in the ear of Balb/c mice (Charles River Japan, male, 7 weeks old) 5 times every other days. Seven hr after IL-23 administration at 8 days after the initial administration (final administration), the mice were anesthetized with isoflurane, and ear thickness was measured with calipers. After the ear thickness was measured, the ear was resected, tissue 8 mm in diameter was punched from an area centering on the IL-23 injection site, and the tissue was weighed. The punched ear tissue was cut in half, and one half was immersion-fixed in 10% neutral buffer formalin solution for use in histopathological evaluation. The other half was immersed in RNAlater (QIAGEN) for at least 18 hr for use in an evaluation of the IL-17A mRNA expression level. The test compound was suspended in 0.5% methylcellulose and administered orally twice daily on consecutive days from 30 min before the initial IL-23 administration to 30 min before the final IL-23 administration.
The change in ear thickness in this model was evaluated by calculating the difference in measured thickness between before IL-23 administration and 7 hr after the final IL-23 administration. In addition, the formalin-fixed tissue was embedded and sectioned, then stained with hematoxylin-eosin. The degree of acanthosis was then evaluated qualitatively by microscopy (classified with a score of 0 to 4). RNA extraction from the ear tissue and quantitative PCR were performed as follows. As described above, ear tissue treated with RNAlater (QIAGEN) was homogenized in 350 μL of RLT buffer (RNeasy mini kit, QIAGEN) and treated (55° C., 10 min) with Proteinase K (QIAGEN). Total RNA was then extracted according to the RNeasy mini kit protocol. The RNA thus obtained was reverse transcribed into cDNA using the High-Capacity RNA-to-cDNA kit (Applied Biosystems), and the expression of each gene was measured by real-time PCR (Viia7™, Applied Biosystems). The PCR buffer used was TaqMan Fast Advanced Master Mix (Applied Biosystems), and TaqMan Gene Expression Assays (Applied Biosystems) Mm00439618_m1 (IL-17A) and 4352341E (β-actin) were used to detect the genes. The IL-17A gene expression level was normalized to the β-actin gene expression level, and the percent inhibition of IL-17A gene expression with the test compound was then calculated.
The results (percent inhibition of ear thickness, acanthosis score and IL-17A gene expression with oral administration of the test compound) measured by the above-mentioned method are shown in Table 10.

In assay [5] the target is T1, RORγt. Put plainly: RORγt binding test using fluorescent-labeled synthetic ligand (TR-FRET). Particulars: read-out: binding inhibitory rate of fluorescent-labeled synthetic ligand to RORγt at test compound 1 μM. (In general: TR-FRET usually uses a lanthanide donor and a delayed reading to cut background.)
The test system of the next assay is IL-17A gene expression. Put plainly: Effect on IL-23-induced cytokine expression in mice. The format is in vivo, mouse. Particulars: 10 mg/kg oral, 30 min before and 8 hr after IL-23; ear of Balb/c mice; versus the negative control group. As for the experimental part:
Effect on IL-23-Induced Cytokine Expression in Mice
A mouse IL-23 solution (500 ng/10 μL, prepared by Takeda Pharmaceutical Company Limited) or PBS (10 μL, negative control group) was administered intradermally in the ear of Balb/c mice (Charles River Japan, male, 7 weeks old). Twenty-four hr after administration, the ear was resected under isoflurane anesthesia. The test compound was suspended in 0.5% methylcellulose and administered orally 30 min before and 8 hr after IL-23 administration.
RNA extraction from the ear tissue and quantitative PCR were performed as follows. Specifically, ear tissue 5 mm in diameter was punched from an area of the resected ear centering on the IL-23 injection site, and the tissue was immersed in RNAlater (QIAGEN) for at least 18 hr. The RNAlater-treated ear tissue was homogenized in 350 μL of RLT buffer (RNeasy mini kit, QIAGEN) and treated (55° C., 10 min) with Proteinase K (QIAGEN). Total RNA was then extracted according to the RNeasy mini kit protocol. The RNA thus obtained was then reverse transcribed into cDNA using the High-Capacity RNA-to-cDNA kit (Applied Biosystems), and the amount of each gene expressions was measured by real-time PCR (Viia7™, Applied Biosystems). The PCR buffer used was TaqMan Fast Advanced Master Mix (Applied Biosystems), and TaqMan Gene Expression Assays (Applied Biosystems) Mm00439618_m1 (IL-17A) and 4352341E (β-actin) were used for each gene detection. The IL-17A gene expression level was normalized to the β-actin gene expression level, and the percent inhibition of IL-17A gene expression with the test compound was then calculated.
The results (percent inhibition of IL-17A gene expression with oral administration of the test compound) measured by the above-mentioned method are shown in Table 9.

As for `COc1ccc2c(n1)CCN(C(=O)[C@H]1C[C@@H]1CC(=O)O)[C@H]2C(=O)Nc1cc(F)c2c(c1)CCC2(C)C` [Example 6, ((1R,2S)-2-(((5R)-5-((7-fluoro-1,1-dimethyl-2,3-dihydro-1H-inden-5-yl)carbamoyl)-2-methoxy-7,8-dihydro-1,6-naphthyridin-6(5H)-yl)carbonyl)cyclopropyl)acetic acid], the inhibition at 10 µM in assay [1] worked out at 86.6%. Besides, at RORγt [2] (test compound 1 μM), the inhibition at 1 µM was 54%. The inhibition at 3 µM on RORγt [3] (Jurkat) is 97%. Besides, in assay [4], the “percent inhibition of acanthosis score” value came to 39%, the “percent inhibition of ear thickness” value came out at 64% and the “percent inhibition of IL-17A expression” value came out at 111%. The inhibition at 1 µM at RORγt [5] (test compound 1 μM) came to 102%.
For `COCc1ccc2c(c1)CCN(C(=O)[C@H]1C[C@@H](CC(=O)O)C1)[C@H]2C(=O)Nc1cc(F)c2c(c1)CCC2(C)C` [Example 19, (cis-3-(((1R)-1-((7-fluoro-1,1-dimethyl-2,3-dihydro-1H-inden-5-yl)carbamoyl)-6-(methoxymethyl)-3,4-dihydroisoquinolin-2(1H)-yl)carbonyl)cyclobutyl)acetic acid], the inhibition at 10 µM in assay [1] turned out to be 94.1%. Further, the inhibition at 1 µM on RORγt [2] (test compound 1 μM) is 82%. In addition, on RORγt [3] (Jurkat), the inhibition at 3 µM came out at 99%. In addition, in assay [4], the “percent inhibition of acanthosis score” value is listed as 29%, the “percent inhibition of ear thickness” value amounted to 40% and the “percent inhibition of IL-17A expression” value is listed as 94%. Further, on RORγt [5] (test compound 1 μM), the inhibition at 1 µM was 101%.
Take `COc1ccc2c(n1)CCN(C(=O)[C@H]1C[C@H](CC(=O)O)C1)[C@H]2C(=O)Nc1cc(F)c([Si](C)(C)C)c(F)c1` [Example 28, (trans-3-(((5R)-5-((3,5-difluoro-4-(trimethylsilyl)phenyl)carbamoyl)-2-methoxy-7,8-dihydro-1,6-naphthyridin-6(5H)-yl)carbonyl)cyclobutyl)acetic acid]: the inhibition at 10 µM in assay [1] was found to be 89.1%. For the same compound, the “percent inhibition of IL-17A gene expression” value in the assay on IL-17A gene expression was 91%. The inhibition at 1 µM on RORγt [2] came to 87%; at RORγt [5] it was 102%. At RORγt [3], the inhibition at 3 µM was found to be 101%.
In the case of `COc1ccc2c(c1)CCN(C(=O)[C@H]1C[C@@H]1CC(=O)O)[C@H]2C(=O)Nc1cc(F)c([Si](C)(C)C)c(F)c1` [Example 29, ((1R,2S)-2-(((1R)-1-((3,5-difluoro-4-(trimethylsilyl)phenyl)carbamoyl)-6-methoxy-3,4-dihydroisoquinolin-2(1H)-yl)carbonyl)cyclopropyl)acetic acid], the inhibition at 10 µM in assay [1] was determined as 74.9%. The “percent inhibition of IL-17A gene expression” value with IL-17A gene expression is 73%. Further, the inhibition at 1 µM at RORγt [2] turned out to be 91%; on RORγt [5], 102%. The inhibition at 3 µM at RORγt [3] was found to be 102%.
`COc1ccc2c(n1)CCN(C(=O)[C@H]1C[C@@H](C(=O)O)C1)[C@H]2C(=O)Nc1cc(F)c([Si](C)(C)C)c(F)c1` [Example 31, cis-3-(((5R)-5-((3,5-difluoro-4-(trimethylsilyl)phenyl)carbamoyl)-2-methoxy-7,8-dihydro-1,6-naphthyridin-6(5H)-yl)carbonyl)cyclobutanecarboxylic acid]: the inhibition at 10 µM in assay [1] is 89.8%. Further, in the assay with IL-17A gene expression, the “percent inhibition of IL-17A gene expression” value is recorded as 85%. In addition, the results for the inhibition at 1 µM at RORγt [2] and on RORγt [5] were 86% and 102%, respectively. Besides, the inhibition at 3 µM on RORγt [3] was determined as 102%.
As for `COc1ccc2c(c1)CCN(C(=O)[C@H]1C[C@@H](CC(=O)O)C1)[C@H]2C(=O)Nc1ccc([Si](C)(C)C)c(F)c1` [Example 33, (cis-3-(((1R)-1-((3-fluoro-4-(trimethylsilyl)phenyl)carbamoyl)-6-methoxy-3,4-dihydroisoquinolin-2(1H)-yl)carbonyl)cyclobutyl)acetic acid], the inhibition at 10 µM in assay [1] amounted to 78.5%. In addition, the “percent inhibition of IL-17A gene expression” value with IL-17A gene expression was determined as 94%. Further, the inhibition at 1 µM is 92% on RORγt [2] and 102% at RORγt [5]. Further, on RORγt [3], the inhibition at 3 µM is 102%.

(Values after patent US10093629B2, “Heterocyclic compounds and their use as retinoid-related orphan receptor (ROR) gamma-T inhibitors” (Takeda Pharmaceutical Company Limited, priority 2014, dated 2018).)
